Holding throughout (assay type): functional, cell-based
Test [1] has as its system MDA-MB-231. The test can be described thus: Antiproliferative activity against human MDA-MB-231 cells assessed as inhibition of cell growth measured after 48 hrs by MTT assay. The following applies: MDA-MB-231, 48 h. (In general: Formazan colour is commonly taken as a measure of viable cells.)
Test [2] relates to HeLa. The test can be described thus: Antiproliferative activity against human HeLa cells assessed as inhibition of cell growth measured after 48 hrs by MTT assay.
For test [3], the system named is B16-F10. The test can be described thus: Antiproliferative activity against mouse B16-F10 cells assessed as inhibition of cell growth measured after 48 hrs by MTT assay. As to conditions: B16-F10, 48 h.
Test [4] concerns HepG2. Kind of test: Antiproliferative activity against human HepG2 cells assessed as inhibition of cell growth measured after 48 hrs by MTT assay. The following applies: HepG2, 48 h.
The test system of test [5] is A549. The test can be described thus: Antiproliferative activity against human A549 cells assessed as inhibition of cell growth measured after 48 hrs by MTT assay. The following applies: A549, 48 h.
Test [6] relates to SK-OV-3. The test can be described thus: Antiproliferative activity against human SK-OV-3 cells assessed as inhibition of cell growth measured after 48 hrs by MTT assay. The following applies: SK-OV-3, 48 h.

By IC50 is commonly meant the concentration needed to halve the response being measured. In the case of `COc1cccc(Nc2cc(Nc3cccc(NC(=O)C(C)(C)C)c3)ncn2)c1`, the half-inhibitory concentration (IC50) in test [1], in test [2], in test [3], in test [4], in test [5] and in test [6] was over 1 µM throughout.

On to `COc1cc(Nc2cc(Nc3cccc(NC(=O)C4CC4)c3)ncn2)ccc1F`, for which the 50% inhibitory concentration (IC50) was 0.107 µM in test [1]; 0.0659 µM in test [2]; 0.199 µM in test [3]; 0.342 µM in test [4]; 0.218 µM in test [5]; 0.0427 µM in test [6].

Turning to `COc1cccc(Nc2cc(Nc3cccc(NC(=O)C(C)C)c3)ncn2)c1`, the IC50 in test [1] is 0.644 µM; in test [2] it was over 1 µM; in test [3], over 1 µM; in test [4] it was over 1 µM; in test [5] it was 0.299 µM; in test [6], 0.0411 µM.

Consider `COc1cccc(Nc2cc(Nc3cccc(C(=O)NC4CCCCC4)c3)ncn2)c1`, for which the half-maximal inhibitory concentration (IC50) in test [1], in test [2], in test [3], in test [4], in test [5] and in test [6] was over 1 µM throughout.

As for `COc1cccc(Nc2nc(Nc3cccc(NC(=O)C4CC4)c3)nc3ccsc23)c1`, the IC50 in test [1] was 0.61 µM; in test [2], over 1 µM; in test [3] it was over 1 µM; in test [4] it was over 1 µM; in test [5], over 1 µM; in test [6], over 1 µM.

Take `CCC(=O)Nc1cccc(Nc2cc(Nc3cccc(OC)c3)ncn2)c1`: the IC50 in test [1] was over 1 µM; in test [2] it was 0.0067 µM; in test [3], 0.393 µM; in test [4], 0.0993 µM; in test [5] it was 0.273 µM; in test [6], 0.0141 µM.

For `O=C(Nc1cccc(Nc2cc(N3CCOc4ccccc43)ncn2)c1)C1CC1`, the concentration for half-maximal inhibition (IC50) in test [1] is 0.563 µM; in test [2], 0.349 µM; in test [3] it was over 1 µM; in test [4], 0.0348 µM; in test [5] it was over 1 µM; in test [6] it was 0.0842 µM.

In the case of `Cc1nc(Nc2cccc(NC(=O)C3CC3)c2)cc(Nc2cccc(C(F)(F)F)c2)n1`, the IC50 is over 1 µM in test [1]; over 1 µM in test [2]; 0.562 µM in test [3]; 0.0641 µM in test [4]; over 1 µM in test [5]; 0.123 µM in test [6].

Turning to `COc1cccc(Nc2cc(Nc3cccc(NS(=O)(=O)C4CC4)c3)ncn2)c1`, the half-inhibitory concentration (IC50) in test [1] is 0.438 µM; in test [2], 0.13 µM; in test [3], 0.0542 µM; in test [4], 0.284 µM; in test [5] it was 0.0816 µM; in test [6], 0.0568 µM.

Consider `O=C(Nc1cccc(Nc2nc(Nc3cccc(C(F)(F)F)c3)c3ccccc3n2)c1)C1CC1`, for which the IC50 in test [1], in test [2], in test [3], in test [4], in test [5] and in test [6] was over 1 µM each time.

As for `COc1cccc(Nc2nc(Nc3cccc(NC(=O)C4CC4)c3)nc3sccc23)c1`, the IC50 in test [1], in test [2], in test [3], in test [4], in test [5] and in test [6] was over 1 µM each time.

Consider `O=C(Nc1cncc(Nc2cc(Nc3cccc(C(F)(F)F)c3)ncn2)c1)C1CC1`, for which the IC50 in test [1], in test [2], in test [3], in test [4], in test [5] and in test [6] was over 1 µM in each case.

As for `CC(=O)c1cccc(Nc2cc(Nc3cccc(NC(=O)C4CC4)c3)ncn2)c1`, the concentration for half-maximal inhibition (IC50) in test [1] came to 0.0649 µM; in test [2] it was 0.0225 µM; in test [3], 0.167 µM; in test [4], 0.127 µM; in test [5], 0.509 µM; in test [6], 0.0316 µM.

Turning to `COc1cccc(Nc2cc(Nc3cccc(C(=O)NC4CCCC4)c3)ncn2)c1`, the concentration for half-maximal inhibition (IC50) in test [1], in test [2], in test [3], in test [4], in test [5] and in test [6] was over 1 µM each time.

On to `O=C(Nc1cccc(Nc2cc(N3CCc4ccccc43)ncn2)c1)C1CC1`, for which the IC50 in test [1], in test [2], in test [3], in test [4], in test [5] and in test [6] was over 1 µM in each case.

Consider `COc1nc(Nc2cccc(NC(=O)C3CC3)c2)cc(Nc2cccc(C(F)(F)F)c2)n1`, for which the half-inhibitory concentration (IC50) in test [1], in test [2], in test [3], in test [4], in test [5] and in test [6] was over 1 µM throughout.

`COc1cccc(Nc2cc(Nc3cccc(NC(=O)C4CC4)c3)nc(C)n2)c1`: the IC50 was over 1 µM in test [1]; 0.12 µM in test [2]; 0.0096 µM in test [3]; 0.0932 µM in test [4]; over 1 µM in test [5]; 0.156 µM in test [6].

For `O=C(Nc1cccc(Nc2nc(Nc3cccc(C(F)(F)F)c3)nc3ccccc23)c1)C1CC1`, the IC50 in test [1], in test [2], in test [3], in test [4], in test [5] and in test [6] was over 1 µM throughout.

With `O=C(Nc1cccc(Nc2nc(Nc3cccc(C(F)(F)F)c3)nc3ccsc23)c1)C1CC1`, the IC50 in test [1], in test [2], in test [3], in test [4], in test [5] and in test [6] was over 1 µM in each case.

On to `CCc1cccc(Nc2cc(Nc3cccc(NC(=O)C4CC4)c3)ncn2)c1`, for which the IC50 was 0.0031 µM in test [1]; 0.0032 µM in test [2]; 0.0466 µM in test [3]; 0.314 µM in test [4]; 0.0234 µM in test [5]; 0.0019 µM in test [6].

`O=C(Nc1cccc(Nc2cc(N3CCc4c3cccc4C(F)(F)F)ncn2)c1)C1CC1`: the concentration for half-maximal inhibition (IC50) in test [1], in test [2], in test [3], in test [4], in test [5] and in test [6] was over 1 µM each time.

Take `CCOc1cccc(Nc2cc(Nc3cccc(NC(=O)C4CC4)c3)ncn2)c1`: the IC50 came out at 0.0019 µM in test [1]; 0.613 µM in test [2]; 0.0207 µM in test [3]; 0.128 µM in test [4]; 0.173 µM in test [5]; 0.0174 µM in test [6].

As to `COc1ccc(C)c(Nc2cc(Nc3cccc(NC(=O)C4CC4)c3)ncn2)c1`, the IC50 in test [1] came to 0.0488 µM; in test [2] it was 0.0179 µM; in test [3] it was 0.0023 µM; in test [4] it was 0.0352 µM; in test [5] it was 0.002 µM; in test [6], 0.0569 µM.

As to `Cc1cccc2c1CCN2c1cc(Nc2cccc(NC(=O)C3CC3)c2)ncn1`, the concentration for half-maximal inhibition (IC50) in test [1], in test [2], in test [3], in test [4], in test [5] and in test [6] was over 1 µM each time.

In the case of `O=C(Nc1cccc(Nc2nc(Nc3cccc(C(F)(F)F)c3)c3sccc3n2)c1)C1CC1`, the 50% inhibitory concentration (IC50) in test [1], in test [2], in test [3], in test [4], in test [5] and in test [6] was over 1 µM in each case.

As for `O=C(Nc1cccc(Nc2nc(Nc3cccc(C(F)(F)F)c3)nc3sccc23)c1)C1CC1`, the IC50 in test [1], in test [2], in test [3], in test [4], in test [5] and in test [6] was over 1 µM each time.

Regarding `COc1cccc(Nc2cc(Nc3cccc(NC(=O)C4CCCCC4)c3)ncn2)c1`, the 50% inhibitory concentration (IC50) in test [1] was over 1 µM; in test [2] it was 0.0525 µM; in test [3], 0.315 µM; in test [4], 0.166 µM; in test [5], 0.0832 µM; in test [6], 0.0236 µM.

Turning to `COc1cccc(Oc2cc(Nc3cccc(NC(=O)C4CC4)c3)ncn2)c1`, the IC50 in test [1] was 0.155 µM; in test [2], 0.475 µM; in test [3] it was 0.0839 µM; in test [4], 0.0228 µM; in test [5] it was 0.0683 µM; in test [6] it was 0.0686 µM.

`COc1cccc(Nc2cc(Nc3ccc(NC(=O)C4CC4)cc3)ncn2)c1`: the half-inhibitory concentration (IC50) in test [1], in test [2], in test [3], in test [4], in test [5] and in test [6] was over 1 µM each time.

As to `COc1cccc(Nc2cc(Nc3cccc(OC)c3)ncn2)c1`, the IC50 in test [1], in test [2], in test [3], in test [4], in test [5] and in test [6] was over 1 µM each time.

As for `Cc1c(F)cccc1Nc1cc(Nc2cccc(NC(=O)C3CC3)c2)ncn1`, the IC50 was 0.0234 µM in test [1]; 0.0622 µM in test [2]; 0.0178 µM in test [3]; 0.429 µM in test [4]; 0.0279 µM in test [5]; 0.0316 µM in test [6].

As to `Cc1cc(NC(=O)C2CC2)cc(Nc2cc(Nc3cccc(C(F)(F)F)c3)ncn2)c1`, the half-inhibitory concentration (IC50) is over 1 µM in test [1]; 0.499 µM in test [2]; 0.443 µM in test [3]; 0.201 µM in test [4]; over 1 µM in test [5]; 0.0317 µM in test [6].
